The values that follow come from US4200748A, “Pyrido[1',2':4,5][1,4]oxazino[2,3-b]quinoxalines and pyrrolo[1',2':4,5][1,4]oxazino[2,3-b]quinoxalines” (American Cyanamid Company, priority 1979, dated 1980).

The test system of the assay is brain receptors (3H-diazepam binding). Kind of assay: Inhibition of the binding of 3H-diazepam to the brain receptors (rat frontal cortex P2-synaptosomal fraction). Particulars: 3H-diazepam 1.5 nM, pH 7.4, 20 minutes in ice; for % Inhibition of Diazepam Binding: test concentration not given; for IC50: inhibition of 3H-diazepam binding. Further details: species or system male albino rats of the Wistar strain. From the text:
A test used to measure anxiolytic activity comprises measurement of the ability of test compounds to inhibit the binding of ^3 H-diazepam to the brain receptors of warm-blooded animals. The test is described by R. F. Squires in Nature, 266, No. 21, page 732 (April 1977). The animals used were male albino rats of the Wistar strain, weighing 150-200 g. each from Royalhart Farms. Diazepam (methyl-^3 H) was obtained from New England Nuclear. The test compounds were solubilized in either dimethylformamide, acetic acid, ethanol or hydrochloric acid. The frontal cortex of rats was homogenized gently in 20 volumes of ice-cold 0.32 M. sucrose, centrifuged twice at 1000 g. for 10 minutes and then recentrifuged at 30,000 g. for 20 minutes to produce a crude P2 -synaptosomal fraction. The P2 -fraction was rehomogenised, twice the original volume, in hypotonic 50 mM. Tris.HCl (pH 7.4). The binding assay consisted of 300 .parallel.l. of the P2 -fraction suspension (0.350 mg.), 100 .parallel.l. of test drug and 100 μl. of ^3 H-diazepam (1.5 nM.), which was added to 1.5 ml. of 50 mM. Tris.HCl (pH 7.4). Non-specific binding controls and total binding controls received 100 μl. of diazepam (3 μm.) and 100 μl. of deionized water, respectively, in place of the test compound. Incubation for 20 minutes proceeded in ice and was terminated by filtration, under vacuum, through Whatman GF/C glass fiber filters. The filters were washed twice with 5 ml. of ice-cold 50 mM. Tris.HCl (pH 7.4) and placed in scintillation vials. After drying at 50°-60° C. for 30 minutes, 10 ml. of Beckman Ready-Solve HP was added and the radioactivity determined in a Beckman Scintillation Counter.

Regarding `Clc1ccc2nc3c(nc2c1)N1CCCCC1CO3` (stereo not shown) [10-chloro-1,2,3,4,4a,5-hexahydropyrido[1',2':4,5][1,4]oxazino[2,3-b]quinoxaline], the “% Inhibition of Diazepam Binding” value came out at 95% and the IC50 (commonly the midpoint of a concentration-inhibition curve) worked out at 22 nM.
As to `Nc1ccc2nc3c(nc2c1)OCC1CCCCN31` (stereo not shown) [9-Amino-1,2,3,4,4a,5-hexahydropyrido[1',2':4,5][1,4]oxazino[2,3-b]quinoxaline], the “% Inhibition of Diazepam Binding” value was 93% and the IC50 is 39 nM.
On the same counts, the results for `Nc1cccc2nc3c(nc12)N1CCCCC1CO3` (stereo not shown) [11-Amino-1,2,3,4,4a,5-hexahydropyrido[1',2':4,5][1,4]oxazino[2,3-b]quinoxaline] are 98% and 20 nM.
Taken in the same sequence, the figures for `Clc1ccc2nc3c(nc2c1)OCC1CCCCN31` (stereo not shown) [9-Chloro-1,2,3,4,4a,5-hexahydropyrido[1',2':4,5][1,4]oxazino[2,3-b]quinoxaline] were 97% and 14 nM.
Taken in the same sequence, the figures for `FC(F)(F)c1ccc2nc3c(nc2c1)OCC1CCCCN31` (stereo not shown) [1,2,3,4,4a,5-Hexahydro-9-trifluoromethylpyrido[1',2':4,5][1,4]oxazino[2,3-b]quinoxaline] were 90% and 352 nM.
Regarding `O=[N+]([O-])c1cccc2nc3c(nc12)N1CCCCC1CO3` (stereo not shown) [1,2,3,4,4a,5-hexahydro-11-nitropyrido[1',2':4,5][1,4]oxazino[2,3-b]quinoxaline], the “% Inhibition of Diazepam Binding” value is given as 72% and the IC50 is 210 nM.
On the same counts, the results for `c1ccc2nc3c(nc2c1)OCC1CCCN31` (single isomer, unassigned) [2,3,3a,4-Tetrahydro-1H-pyrrolo[1',2':4,5][1,4]oxazino[2,3-b]quinoxaline] are 87% and 87 nM.
On the same counts, the results for `CN(C)C=Nc1cccc2nc3c(nc12)N1CCCCC1CO3` (stereo not shown) [N'-(1,2,3,4,4a,5-hexahydropyrido[1',2':4,5][1,4]oxazino[2,3-b]quinoxalin-11-yl)-N,N-dimethylformamidine] are 96% and 55 nM.
